Laboratory results taken from paper PMC3238229 (Genetics, Selection, Evolution : GSE, 2003).
Where two headings read alike, the source gives them in different places. Ends that are not written are not given here.

Experiments:
[1] = system: BoLA-DRB3*2703; format: binding, bovine
[2] = system: peptide-specific T-lymphocytes from BMC of a cow homozygous for BoLA-DRB3*2703; format: cell-based, Holstein cow
[3] = system: CD4+ and CD8+ peptide-specific T-lymphocytes from BMC of a cow homozygous for BoLA-DRB3*2703; format: cell-based, Holstein cow
[4] = system: IFN-γ production by peptide-specific T-lymphocytes; format: cell-based, Holstein cow
[5] = target: BoLA-DRB3*2703 class II molecule (bovine); assay: binding of labelled peptide to pu
[6] = target: BoLA-DRB3*2703 class II molecule (bovine); assay: competitive peptide binding to pu
[7] = target: BoLA-DRB3*2703 class II molecule (bovine)

Molecule | Binding affinity (designated high or low) [1] | DNA synthesis of T-cells compared to naive cell cultures (in words) [2] | IC50 [6] [µM] | also measured
KISQAVHAAHA [OVA332] | Low | not significantly different | – | IC50 ([1]; read-out: concentration required to inhibit BoLA class II-self-peptide binding by 50% (IC50)): > 640 µM
QAVHAAHAEINE [OVA336] | Low | not significantly different | – | cell divisions of CD8+lo T-lymphocytes compared to the naive lymphocyte culture [3]: more cell divisions; IFN-γ in culture supernatant compared to the naive cell culture [4]: less; IFN-γ in culture supernatant compared to the naive cell culture ([4]; 18 h): less
SSAESLKISQAV [OVA327] | Low | significantly lower | – | –
DVNEFRAVTPLGRPDAE (not fully specified) [Biotinylated self-peptide DQ] | – | – | – | other [5]: 58.2 pixels
QAVHAAHAEINE [OVA336[325-336]] | – | – | > 320 | –
ISQAVHAAHAEINEAGR [OVA339[323-339]] | – | – | 72.2 | –
SIINNYYMQQYQNSM (not fully specified) [FMD-VP4[20-34]] | – | – | – | IC50 [7]: 46.5 µM
DVNEFRAVTPLGRPDAE [Self-peptide DQ (unlabelled competitor)] | – | – | 16.1 | –
SSAESLKISQAV [OVA327[316-327]] | – | – | > 320 | –
ISQAVHAAHAEIN [OVA335[323-335]] | – | – | 26.9 | –
